Experimental data from ChEMBL document CHEMBL5120874, “Tanzawaic Acid Derivatives: Fungal Polyketides from the Deep-Sea Coral-Derived Endozoic Penicillium steckii AS-324” (2022).
Converted amounts (≈) assume the structure as drawn.

Assays:
Format in all cases: functional
Aeromonas hydrophila = test: Antibacterial activity against Aeromonas hydrophila QDIO-1 assessed as inhibition of bacterial growth by serial dilution method
Escherichia coli = test: Antibacterial activity against Escherichia coli EMBLC-1 assessed as inhibition of bacterial growth by serial dilution method
Edwardsiella tarda = test: Antibacterial activity against Edwardsiella tarda QDIO-2 assessed as inhibition of bacterial growth by serial dilution method
Micrococcus luteus = test: Antibacterial activity against Micrococcus luteus QDIO-3 assessed as inhibition of bacterial growth by serial dilution method
Pseudomonas aeruginosa = test: Antibacterial activity against Pseudomonas aeruginosa QDIO-4 assessed as inhibition of bacterial growth by serial dilution method
Vibrio anguillarum = test: Antibacterial activity against Vibrio anguillarum QDIO-6 assessed as inhibition of bacterial growth by serial dilution method
Vibrio alginolyticus = test: Antibacterial activity against Vibrio alginolyticus QDIO-5 assessed as inhibition of bacterial growth by serial dilution method
Vibrio parahaemolyticus = test: Antibacterial activity against Vibrio parahaemolyticus QDIO-8 assessed as inhibition of bacterial growth by serial dilution method

Row | Compound | MIC (Aeromonas hydrophila) | MIC (Escherichia coli) | MIC (Edwardsiella tarda) | MIC (Micrococcus luteus) | MIC (Pseudomonas aeruginosa) | MIC (Vibrio anguillarum) | MIC (Vibrio alginolyticus) | MIC (Vibrio parahaemolyticus)
1 | Cc1ccc2c(c1/C=C/C=C/C(=O)O)[C@H](C)C[C@@](C)(O)C2 | > 64 µg/mL | > 64 µg/mL | > 64 µg/mL | > 64 µg/mL | 16 µg/mL (≈ 55.9 µM) | > 64 µg/mL | > 64 µg/mL | > 64 µg/mL
2 | C[C@H]1C=C[C@H]2C[C@@H](CO)C[C@](C)(O)[C@@H]2[C@H]1/C=C/C=C/C(=O)O | > 64 µg/mL | > 64 µg/mL | > 64 µg/mL | > 64 µg/mL | 4 µg/mL (≈ 13.1 µM) | > 64 µg/mL | > 64 µg/mL | > 64 µg/mL
3 | Cc1cc(C)c2c(/C=C/C=C/C(=O)O)c(CO)ccc2c1 | 64 µg/mL (≈ 227 µM) | > 64 µg/mL | > 64 µg/mL | > 64 µg/mL | > 64 µg/mL | > 64 µg/mL | 32 µg/mL (≈ 113 µM) | 64 µg/mL (≈ 227 µM)
4 | Cc1cc(CO)cc2ccc(CO)c(/C=C/C=C/C(=O)O)c12 | > 64 µg/mL | > 64 µg/mL | > 64 µg/mL | > 64 µg/mL | > 64 µg/mL | > 64 µg/mL | 64 µg/mL (≈ 215 µM) | > 64 µg/mL
5 | CO[C@]1(C)C=C[C@H]2C[C@@H](CO)C[C@@H](C)[C@@H]2[C@H]1/C=C/C=C/C(=O)O | > 64 µg/mL | > 64 µg/mL | > 64 µg/mL | > 64 µg/mL | > 64 µg/mL | 8 µg/mL (≈ 25 µM) | > 64 µg/mL | 64 µg/mL (≈ 200 µM)
6 | C[C@@H]1C[C@H](CO)C[C@@H]2C=C[C@@](C)(O)[C@](O)(/C=C/C=C/C(=O)O)[C@@H]12 | > 64 µg/mL | > 64 µg/mL | > 64 µg/mL | > 64 µg/mL | > 64 µg/mL | 8 µg/mL (≈ 24.8 µM) | 32 µg/mL (≈ 99.3 µM) | 64 µg/mL (≈ 199 µM)
7 | Cc1ccc2c(c1/C=C/C=C/C(=O)O)[C@H](C)C[C@H](C)[C@@H]2O | 32 µg/mL (≈ 112 µM) | 64 µg/mL (≈ 223 µM) | > 64 µg/mL | 64 µg/mL (≈ 223 µM) | > 64 µg/mL | 4 µg/mL (≈ 14 µM) | 32 µg/mL (≈ 112 µM) | 32 µg/mL (≈ 112 µM)
8 | C[C@@H]1C[C@@H]2C=C[C@H](C)[C@H](/C=C/C=C/C(=O)O)[C@H]2[C@@](C)(O)C1 | > 64 µg/mL | 64 µg/mL (≈ 220 µM) | > 64 µg/mL | > 64 µg/mL | > 64 µg/mL | > 64 µg/mL | 32 µg/mL (≈ 110 µM) | 64 µg/mL (≈ 220 µM)
9 | CC1C=C[C@H]2C[C@@H](CO)C[C@@H](C)[C@@H]2[C@H]1/C=C/C=C/C(=O)O (stereo not given in full) | 64 µg/mL (≈ 220 µM) | 64 µg/mL (≈ 220 µM) | > 64 µg/mL | 8 µg/mL (≈ 27.5 µM) | > 64 µg/mL | > 64 µg/mL | 8 µg/mL (≈ 27.5 µM) | > 64 µg/mL
10 | Cc1cc(CO)cc2ccc(CO)c(/C=C\C=C\C(=O)O)c12 | > 64 µg/mL | > 64 µg/mL | > 64 µg/mL | > 64 µg/mL | > 64 µg/mL | > 64 µg/mL | > 64 µg/mL | > 64 µg/mL
11 | CO[C@@]1(C)C=C[C@H]2C[C@@H](CO)C[C@@H](C)[C@@H]2[C@H]1/C=C/C=C/C(=O)O | > 64 µg/mL | 8 µg/mL (≈ 25 µM) | > 64 µg/mL | > 64 µg/mL | > 64 µg/mL | > 64 µg/mL | 32 µg/mL (≈ 99.9 µM) | > 64 µg/mL
12 | Cc1ccc2c(c1/C=C/C=C/C(=O)O)[C@H](C)C[C@H](CO)C2 | > 64 µg/mL | > 64 µg/mL | > 64 µg/mL | > 64 µg/mL | > 64 µg/mL | 4 µg/mL (≈ 14 µM) | > 64 µg/mL | 64 µg/mL (≈ 223 µM)
13 | Cc1ccc2c(c1/C=C/C=C/C(=O)O)[C@H](C)C[C@@](C)(O)C2=O | > 64 µg/mL | 64 µg/mL (≈ 213 µM) | > 64 µg/mL | > 64 µg/mL | > 64 µg/mL | 4 µg/mL (≈ 13.3 µM) | > 64 µg/mL | 64 µg/mL (≈ 213 µM)
14 | Cc1ccc2cc(CO)cc(C)c2c1/C=C/C=C/C(=O)O | > 64 µg/mL | 64 µg/mL (≈ 227 µM) | 64 µg/mL (≈ 227 µM) | 2 µg/mL (≈ 7.08 µM) | > 64 µg/mL | > 64 µg/mL | 16 µg/mL (≈ 56.7 µM) | 32 µg/mL (≈ 113 µM)
15 | O=C(N[C@H](CO)[C@H](O)c1ccc([N+](=O)[O-])cc1)C(Cl)Cl [CHLORAMPHENICOL] | 1 µg/mL (≈ 3.09 µM) | 1 µg/mL (≈ 3.09 µM) | 2 µg/mL (≈ 6.19 µM) | 0.5 µg/mL (≈ 1.55 µM) | 1 µg/mL (≈ 3.09 µM) | 2 µg/mL (≈ 6.19 µM) | 2 µg/mL (≈ 6.19 µM) | 1 µg/mL (≈ 3.09 µM)
